Results reported in ChEMBL document CHEMBL1148838, “Synthesis and antibacterial evaluation of a novel series of rifabutin-like spirorifamycins” (2007).
Converted amounts (≈) assume the structure as drawn.

Assays:
Type in all cases: functional
[1] = tested on: Staphylococcus aureus; assay: Antibacterial activity against rifamycin-sensitive Staphylococcus aureus CB190
[2] = tested on: Staphylococcus aureus; assay: Antibacterial activity against intermediate rifamycin-resistant Staphylococcus aureus CB372 with rpoB Asp471Tyr mutation
[3] = tested on: Staphylococcus aureus; assay: Antibacterial activity against rifamycin-resistant Staphylococcus aureus CB370 with rpoB His481Tyr mutation
[4] = tested on: Staphylococcus aureus; assay: Antibacterial activity against Staphylococcus aureus ATCC 6538 induced-septicemia in po dosed mouse; details: ATCC 6538, po
[5] = tested on: Staphylococcus aureus; assay: Antibacterial activity against Staphylococcus aureus ATCC 6538 induced-septicemia in sc dosed mouse; details: ATCC 6538, sc

Row | SMILES | MIC [1] | MIC [2] | MIC [3] | ED50 [4] | ED50 [5]
1 | CO[C@H]1/C=C/O[C@@]2(C)Oc3c(C)c(O)c4c(c3C2=O)C2=NC3(CCN(C)C3)CNC2=C(NC(=O)/C(C)=C\C=C\[C@H](C)[C@H](O)[C@@H](C)[C@@H](O)[C@@H](C)[C@H](OC(C)=O)[C@@H]1C)C4=O (some centres undefined) | 0.013 µg/mL (≈ 0.0162 µM) | 0.98 µg/mL (≈ 1.22 µM) | > 62.5 µg/mL |  | 
2 | CO[C@H]1/C=C/O[C@@]2(C)Oc3c(C)c(O)c4c(c3C2=O)C2=NC3(CCN(Cc5cnc6ccccc6c5)C3)CNC2=C(NC(=O)/C(C)=C\C=C\[C@H](C)[C@H](O)[C@@H](C)[C@@H](O)[C@@H](C)[C@H](OC(C)=O)[C@@H]1C)C4=O (some centres undefined) | 0.063 µg/mL (≈ 0.0676 µM) | 7.81 µg/mL (≈ 8.38 µM) | > 62.5 µg/mL |  | 
3 | CO[C@H]1/C=C/O[C@@]2(C)Oc3c(C)c(O)c4c(c3C2=O)C2=NC3(CCN(C(=O)OC(C)(C)C)CC3)CNC2=C(NC(=O)/C(C)=C\C=C\[C@H](C)[C@H](O)[C@@H](C)[C@@H](O)[C@@H](C)[C@H](OC(C)=O)[C@@H]1C)C4=O | 0.026 µg/mL (≈ 0.0287 µM) | 7.81 µg/mL (≈ 8.63 µM) | > 62.5 µg/mL |  | 
4 | CO[C@H]1/C=C/O[C@@]2(C)Oc3c(C)c(O)c4c(c3C2=O)C2=NC3(CCN(CC(C)C)CC3)CNC2=C(NC(=O)/C(C)=C\C=C\[C@H](C)[C@H](O)[C@@H](C)[C@@H](O)[C@@H](C)[C@H](OC(C)=O)[C@@H]1C)C4=O | 0.063 µg/mL (≈ 0.0732 µM) | 7.81 µg/mL (≈ 9.07 µM) | > 62.5 µg/mL | < 0.1 mg/kg | 0.6 mg/kg
5 | CO[C@H]1/C=C/O[C@@]2(C)Oc3c(C)c(O)c4c(c3C2=O)C2=NC3(CCN(Cc5cnc6ccccc6c5)CC3)CNC2=C(NC(=O)/C(C)=C\C=C\[C@H](C)[C@H](O)[C@@H](C)[C@@H](O)[C@@H](C)[C@H](OC(C)=O)[C@@H]1C)C4=O | 0.063 µg/mL (≈ 0.0666 µM) | 0.98 µg/mL (≈ 1.04 µM) | 15.6 µg/mL (≈ 16.5 µM) | 5 mg/kg | 0.6 mg/kg
6 | CO[C@H]1/C=C/O[C@@]2(C)Oc3c(C)c(O)c4c(c3C2=O)C2=NC3(CCN(CC(C)C)C3)CNC2=C(NC(=O)/C(C)=C\C=C\[C@H](C)[C@H](O)[C@@H](C)[C@@H](O)[C@@H](C)[C@H](OC(C)=O)[C@@H]1C)C4=O (some centres undefined) | 0.063 µg/mL (≈ 0.0744 µM) | > 62.5 µg/mL | 31.3 µg/mL (≈ 37 µM) |  | 
7 | CO[C@H]1/C=C/O[C@@]2(C)Oc3c(C)c(O)c4c(c3C2=O)C2=NC3(CCN(C)CC3)CNC2=C(NC(=O)/C(C)=C\C=C\[C@H](C)[C@H](O)[C@@H](C)[C@@H](O)[C@@H](C)[C@H](OC(C)=O)[C@@H]1C)C4=O | 0.016 µg/mL (≈ 0.0195 µM) | 1.95 µg/mL (≈ 2.38 µM) | > 62.5 µg/mL | > 10 mg/kg | 0.3 mg/kg
8 | CO[C@H]1/C=C/O[C@@]2(C)Oc3c(C)c(O)c4c(c3C2=O)C2=NC3(CCN(Cc5ccccc5)CC3)CNC2=C(NC(=O)/C(C)=C\C=C\[C@H](C)[C@H](O)[C@@H](C)[C@@H](O)[C@@H](C)[C@H](OC(C)=O)[C@@H]1C)C4=O | 0.003 µg/mL (≈ 0.00335 µM) | 1.95 µg/mL (≈ 2.18 µM) | 32 µg/mL (≈ 35.8 µM) |  | 
9 | C=CCN1CCC2(CC1)CNC1=C3NC(=O)/C(C)=C\C=C\[C@H](C)[C@H](O)[C@@H](C)[C@@H](O)[C@@H](C)[C@H](OC(C)=O)[C@H](C)[C@@H](OC)/C=C/O[C@@]4(C)Oc5c(C)c(O)c(c(c5C4=O)C1=N2)C3=O | 0.006 µg/mL (≈ 0.0071 µM) | 15.6 µg/mL (≈ 18.5 µM) | > 62.5 µg/mL |  | 
10 | CO[C@H]1/C=C/O[C@@]2(C)Oc3c(C)c(O)c4c(c3C2=O)C2=NC3(CCN(C(=O)OC(C)(C)C)C3)CNC2=C(NC(=O)/C(C)=C\C=C\[C@H](C)[C@H](O)[C@@H](C)[C@@H](O)[C@@H](C)[C@H](OC(C)=O)[C@@H]1C)C4=O (some centres undefined) | 0.016 µg/mL (≈ 0.018 µM) | 7.81 µg/mL (≈ 8.77 µM) | > 62.5 µg/mL |  | 
11 | CO[C@H]1/C=C/O[C@@]2(C)Oc3c(C)c(O)c4c(c3C2=O)C2=NC3(CCN(Cc5ccccc5)C3)CNC2=C(NC(=O)/C(C)=C\C=C\[C@H](C)[C@H](O)[C@@H](C)[C@@H](O)[C@@H](C)[C@H](OC(C)=O)[C@@H]1C)C4=O (some centres undefined) | 0.031 µg/mL (≈ 0.0352 µM) | 3.91 µg/mL (≈ 4.44 µM) | > 62.5 µg/mL |  | 
12 | CO[C@H]1/C=C/O[C@@]2(C)Oc3c(C)c(O)c4c(c3C2=O)C2=NC3(CCN(CC(C)C)CC3)NC2=C(NC(=O)/C(C)=C\C=C\[C@H](C)[C@H](O)[C@@H](C)[C@@H](O)[C@@H](C)[C@H](OC(C)=O)[C@@H]1C)C4=O [RIFABUTIN] | 0.031 µg/mL (≈ 0.0366 µM) | 15.6 µg/mL (≈ 18.4 µM) | > 62.5 µg/mL | 0.6 mg/kg | < 0.1 mg/kg
